Experimental data reported in patent US20100189786A1, “CRYSTALLINE TOLTERODINE TARTARATE AND A PHARMACEUTICAL COMPOSITION CONTAINING THE SAME” (priority 2006, published 2010).

Test: Measurement of particle size by the microscopic method
Format: physicochemical
Settings: no treatment; for weight of the material that would pass through the 250 μm sieve: share by weight; for particles smaller than 30 μm: share of all particles
Experimental: The drawings represent results of measurement of the particle size of the product prepared according to Example 2 by a microscopic method.
For all the batches, measurement of particle size was performed without any treatment using the microscopic method.

Row | Compound | maximum crystal size [μm] | maximum crystal size (listed as batch I) [μm] | weight of the material that would pass through the 250 μm sieve [%] | weight of the material that would pass through the 250 μm sieve (listed as batch I) [%] | particles smaller than 30 μm [%] | particles smaller than 30 μm (listed as batch I) [%] | maximum crystal size (listed as batch II) [μm] | weight of the material that would pass through the 250 μm sieve (listed as batch II) [%] | particles smaller than 30 μm (listed as batch II) [%] | maximum crystal size (listed as batch III) [μm] | weight of the material that would pass through the 250 μm sieve (listed as batch III) [%] | particles smaller than 30 μm (listed as batch III) [%]
1 | Cc1ccc(O)c([C@H](CCN(C(C)C)C(C)C)c2ccccc2)c1.O=C(O)C(O)C(O)C(=O)O [Batch I, R-tolterodine tartarate] | 623 | 623 | 40.9 | 40.9 | 91.95 | 91.95 |  |  |  |  |  | 
2 | Cc1ccc(O)c([C@H](CCN(C(C)C)C(C)C)c2ccccc2)c1.O=C(O)C(O)C(O)C(=O)O [Batch II, R-tolterodine tartarate] | 439 |  | 47.2 |  | 94.73 |  | 439 | 47.2 | 94.73 |  |  | 
3 | Cc1ccc(O)c([C@H](CCN(C(C)C)C(C)C)c2ccccc2)c1.O=C(O)C(O)C(O)C(=O)O [Batch III, R-tolterodine tartarate] | 702 |  | 41.3 |  | 89.29 |  |  |  |  | 702 | 41.3 | 89.29
